Data from patent US11331306B2, “Pharmaceutical compositions comprising 4-[1-(2,3-dimethylphenyl)ethyl]-3H-imidazole derivatives for treating retinal diseases” (Allergan, Inc., priority 2011, dated 2022).
Read-outs that look alike come from different tables or passages of the source.

Key:
[1] = biological target: T1, alpha 2A receptor (Homo sapiens, UniProt P08913); experiment: biochemical; conditions: for Relative Efficacy: efficacy relative to the full agonist brimonidine (1.0)
T1 sequence (P08913 1-465): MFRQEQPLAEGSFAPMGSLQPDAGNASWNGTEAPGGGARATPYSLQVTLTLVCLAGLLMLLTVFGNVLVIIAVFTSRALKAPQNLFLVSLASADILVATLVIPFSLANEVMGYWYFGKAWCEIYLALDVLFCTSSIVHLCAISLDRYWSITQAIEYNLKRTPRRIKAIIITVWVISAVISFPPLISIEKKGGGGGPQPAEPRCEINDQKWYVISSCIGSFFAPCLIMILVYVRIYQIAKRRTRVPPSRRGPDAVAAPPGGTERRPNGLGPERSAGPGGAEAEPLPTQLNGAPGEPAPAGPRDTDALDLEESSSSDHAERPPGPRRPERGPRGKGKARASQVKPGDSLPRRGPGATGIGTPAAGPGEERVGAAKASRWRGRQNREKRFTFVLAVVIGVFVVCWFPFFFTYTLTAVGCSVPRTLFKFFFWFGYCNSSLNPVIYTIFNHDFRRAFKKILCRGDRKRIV
Description: In the GTPase assay, receptor activation results in dissociation of GDP and binding of the nonhydrolyzable [^35S]GTPyS to receptor-coupled G-proteins. The extent of binding is a measure of receptor activation. Membranes were prepared from HEK cells transiently expressing the alpha 2A receptor and the three subunits of the Gi G-protein. Membranes were thawed and resuspended using a Polytron disrupter in 4° C. membrane buffer and quantified via Bradford assay. The quantified protein was then added to reaction buffer [50 mM Tris-HCl, 100 mM NaCl, 5 mM MgCl2, 1 mM DTT, 1 mM EDTA, 3 μM propranolol, and 0.1 mM AMP; pH 7.4 and 4° C. to achieve a 100 μg/ml concentration, allowed to incubate for 15 minutes, and then incubated for an additional 10 minutes in the presence of 6 μM GDP. The above mixture was then aliquoted, 50 μL/well, in a 96 well plate, combined with an equal volume of test compound dissolved in assay buffer [50 mM Tris-HCl, 100 mM NaCl, 5 mM MgCl2, 1 mM EDTA, and 1 mM DTT, pH 7.4 and 4° C.], and allowed to incubate for 5 minutes. Immediately following the above incubation, the mixture was combined with 50 μL of 1.5 nM [^35S]GTPyS in assay buffer and shaken covered for 60 minutes at 25° C. Assays were terminated by vacuum filtration over GF/B filters blocked with 0.5% BSA. Filters were then washed with 4° C. wash buffer [50 mM Tris-HCl, 100 mM NaCl, and 5 mM MgCl2, pH 7.5. The incorporated [^35S]GTPyS was determined using a Microbeta 1450B liquid scintillation counter after the plates had dried overnight.

[2] = biological target: T2, α2A-adrenergic receptor (Homo sapiens, UniProt P08913); conditions: for down regulation of alpha 2A receptor (receptor density): binding studies, result in words; for Percent of B max Decrease: 24 hours, HEK 293T cells stably transfected with α2A-adrenergic receptor
T2 sequence (P08913 1-465): T1 sequence (P08913 1-465)
Description: Human embryonic kidney (HEK) 293T cells stably transfected with the α2A-adrenergic receptor were grown to 50-60% confluency on T-175 culture flasks in DMEM (Gibco, cat. #11995), 10% FBS (Gibco, cat. #16140), 0.25 μg/ml puromycin (Sigma, cat. # P-8833), and 1% antibiotic-antimycotic (Gibco, cat. #15240) maintained at 37° C. and 5% CO2. […] The cells were then washed with room temperature Dulbecco's phosphate buffered saline (DPBS; Gibco, cat. #14190).
Cells were harvested with 4° C. Tris-EDTA buffer [50 mM Tris-HCl, 5 mM EDTA; pH 7.4] and centrifuged at 5,000×g for 5 minutes at 4° C. Membrane preparation was conducted by resuspending the cell pellets in 4° C. Tris-EDTA buffer and lysed with a Polytron disrupter two times (setting 7, 5 seconds each). The lysed suspension was then centrifuged at […] for 32 minutes at 4° C. After decanting the supernatant, the pelleted material was further lysed in 4° C. Tris buffer [50 mM Tris-HCl; pH 8.0] using the Polytron disrupter (setting 4, 5 seconds). Membranes were then aliquoted, pelleted at […] for 32 minutes at 4° C., and stored at −80° C. until use.
Membranes were thawed and resuspended using a Polytron disrupter in 4° C. HBSS-HEPES buffer [1 part 1M HEPES: 5 parts 10× Hank's Balanced Salt Solution: 43.8 parts H2O; pH 7.4 with KOH) and quantified via Bradford assay. The quantified protein was further diluted with HBSS-HEPES buffer to achieve a 100 μg/ml concentration. Membrane suspension was plated in a 96-well plate at 200 IμLs/well±10 μM phentolamine HCl (Sigma, cat. # P-7547) and [Methyl-^3H] Rauwolscine (15 nM to 0.05 nM; PerkinElmer, cat. # NET722250UC). The assay plate was slowly shaken and incubated at 25° C. for ninety minutes. Immediately following the above incubation, the assays were terminated by vacuum filtration over GF/B filters. Filters were then washed with 4° C. HBSS-HEPES buffer. The incorporated [Methyl-^3H] Rauwolscine was determined using a Microbeta 1450B liquid scintillation counter after the plates had dried overnight.

[3] = system: blue light model of retinal degeneration in rats; experiment: blue light model of retinal degeneration, retinal thickness by OCT; type: in vivo, Sprague Dawley rats; conditions: 1 mg/kg/day subcutaneous infusion from two days before 4 hours blue light, OCT at 7 days post exposure, versus saline
Description: (§1) Drugs were administered continuously with subcutaneous infusion pumps at a dose of 1 mg/kg/day starting two days before blue light exposure. These concentrations result in drug levels in the retina of 2.3 ng/g OH-dexmedetomidine which are sufficient for pharmacological activity. Twenty 4-month old male Sprague Dawley rats (body weight 470-550 g) were used in this study. The animals were exposed to room light on a 12 hour light/12 hour dark cycle before the experiment. All animals were dark adapted overnight (16-20 hours) before blue light. Under the intensity of 6100-6500 lux, rats were exposed to blue light for 4 hours. After the blue light, rats were placed in the dark for another 3 days before returning to normal 12 hour light/12 hour dark. Ocular Coherence Tomography (OCT) measurement was performed at 7 days post blue light exposure. […] Histology studies have shown that the reduction in retinal thickness is attributable to loss of photoreceptors.

[4] = drug level in the retina under continuous subcutaneous infusion; type: in vivo, Sprague Dawley rats; conditions: rats, continuous subcutaneous infusion pumps, 1 mg/kg/day
Description: as §1

For `Cc1c(CO)cccc1C(C)c1c[nH]cn1` (racemic) [OH-medetomidine, [3-(1-(1H-imidazol-4-yl)ethyl)-2-methylphenyl] methanol, reference compound], which EC50 [1] is on record?
Its EC50 is 20 nM.

And the “Relative Efficacy” value [1]?
The value was 0.26.

Which EC50 [1] does the source give for `Cc1c(CO)cccc1[C@H](C)c1c[nH]cn1` [OH-dexmedetomidine, (S) [3-(1-(1H-imidazol-4-yl)ethyl)-2-methylphenyl] methanol] here?
The EC50 was 45 nM.

What about the “Relative Efficacy” value [1] of the same molecule?
The value was 0.65.

And the “down regulation of alpha 2A receptor (receptor density)” value [2]?
The value was “very little down regulation of alpha 2A receptor”.

And the “Percent of B max Decrease” value ([2]; compound concentration 1 μM)?
The value was −25%.

What about the “Percent of B max Decrease” value ([2]; compound concentration 10 μM) of the same molecule?
Its value is −14%.

And the “damage caused by blue light (reduction of retinal thickness measured by OCT)” value [3]?
The value was “significantly reduced the damage caused by blue light”.

What about the “damage caused by blue light (reduction of retinal thickness measured by OCT)” value ([3]; listed as (S) [3-(1-(1H-imidazol-4-yl)ethyl)-2-methylphenyl] methanol) of the same molecule?
The value was “reduced the damage caused by blue light”.

And the “drug levels in the retina” value [4]?
The value was 2.3 ng/g.

Which “down regulation of alpha 2A receptor (receptor density)” value [2] does the source give for `Brc1c(N=C2NCCN2)ccc2nccnc12` [brimonidine, (5-bromo-quinoxalin-6-yl)-imidazolidin-2-ylidene-amine, reference compound] here?
The value was “strong reduction in the alpha 2A receptor density”.

What about the “Percent of B max Decrease” value ([2]; compound concentration 1 μM) of the same molecule?
The value was −45%.

And the “Percent of B max Decrease” value ([2]; compound concentration 10 μM)?
The value was −60%.
